Values quoted from earlier work as cited in US20070112050A1, “HMGCoA reductase inhibitor combinations and uses thereof” (pSivida Inc., priority 2005, published 2007).
Where two headings read alike, the source gives them in different places. Blank lines part the entries; values can stand above or below the compound they belong to.

Legend:
[1] = target: T1, HMGCoA reductase (HMGR) (Homo sapiens, UniProt P04035); conditions: substrate of HMGCoA reductase; read-out: Michaelis constant, Km
T1 sequence (P04035 1-888): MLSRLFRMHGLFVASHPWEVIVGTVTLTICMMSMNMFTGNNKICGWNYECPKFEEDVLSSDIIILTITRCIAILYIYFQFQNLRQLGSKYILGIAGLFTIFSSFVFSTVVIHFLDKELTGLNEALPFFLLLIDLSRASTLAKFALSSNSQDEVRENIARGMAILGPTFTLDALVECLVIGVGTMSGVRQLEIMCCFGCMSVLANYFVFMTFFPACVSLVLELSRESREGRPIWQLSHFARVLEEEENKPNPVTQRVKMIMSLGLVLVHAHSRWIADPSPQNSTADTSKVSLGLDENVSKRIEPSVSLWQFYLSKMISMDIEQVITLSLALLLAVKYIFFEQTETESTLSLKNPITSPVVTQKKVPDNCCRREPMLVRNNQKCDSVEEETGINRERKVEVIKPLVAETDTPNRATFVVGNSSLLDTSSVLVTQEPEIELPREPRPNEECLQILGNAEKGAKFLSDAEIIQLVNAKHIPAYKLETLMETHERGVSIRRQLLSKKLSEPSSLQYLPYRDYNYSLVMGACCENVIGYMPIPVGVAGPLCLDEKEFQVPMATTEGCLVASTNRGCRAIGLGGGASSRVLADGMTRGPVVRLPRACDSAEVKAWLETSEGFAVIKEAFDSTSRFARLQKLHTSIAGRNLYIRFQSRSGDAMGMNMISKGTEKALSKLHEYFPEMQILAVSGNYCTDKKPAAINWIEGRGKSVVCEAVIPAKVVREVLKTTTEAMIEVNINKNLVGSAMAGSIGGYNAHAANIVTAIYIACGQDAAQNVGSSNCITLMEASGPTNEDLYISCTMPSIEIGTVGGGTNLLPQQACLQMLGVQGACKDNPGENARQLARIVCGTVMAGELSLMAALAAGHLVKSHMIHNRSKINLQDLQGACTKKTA

[2] = test system: low density lipoprotein cholesterol (LDL); conditions: ezetimibe administered alone

SMILES: CCOc1nc2cccc(C(=O)O)c2n1Cc1ccc(-c2ccccc2-c2nnn[nH]2)cc1 [Candesartan, candesartan]
Half-life (human, in vivo): 10 h
Active metabolite (in vivo): Yes
Major route of inactivation (in vivo): Liver and renal

SMILES: CC(C)(COP(=O)(O)OP(=O)(O)OC[C@H]1O[C@@H](n2cnc3c(N)ncnc32)[C@H](O)[C@@H]1OP(=O)(O)O)[C@@H](O)C(=O)NCCC(=O)NCCSC(=O)C[C@@](C)(O)CC(=O)O [HMGCoA, (S)-3-hydroxy-3-methylglutaryl-CoA]
Km [1]: 4 µM

SMILES: O=C1[C@H](CC[C@H](O)c2ccc(F)cc2)[C@@H](c2ccc(O)cc2)N1c1ccc(F)cc1 [ezetimibe]
reduction of LDL [2]: 17%

More lines, now with the values ahead:

Active metabolite (human body): No
Half-life (human body): 13 h
SMILES: CCCCC1=NC2(CCCC2)C(=O)N1Cc1ccc(-c2ccccc2-c2nnn[nH]2)cc1 [Irbesartan, irbesartan]

Half-life (human body): 6 h
SMILES: CCCCC(=O)N(Cc1ccc(-c2ccccc2-c2nnn[nH]2)cc1)[C@H](C(=O)O)C(C)C [Valsartan, valsartan]

Half-life (human body): 5 h
SMILES: CCCCc1nc(Cl)c(CO)n1Cc1ccc(-c2ccccc2-c2nn[nH]n2)cc1 [Losartan, losartan]
